Reference: patent US11999699B2, “Substituted pyrazole amides” (GRUENENTHAL GMBH, priority 2021, dated 2024)

Molecular target: T1, human NaV1.8 (Homo sapiens, UniProt Q9Y5Y9)
T1 construct: The following NaV1.8 recombinant cell line was used for recordings: HEK-NaV1.8 (NM 006514.1); expressed in transfected cells; host or cells: HEK (recombinant cell line HEK-NaV1.8)
Experiment: Electrophysiology: automated whole-cell voltage-clamp (patch clamp, Qube384) recordings of sodium currents in HEK-NaV1.8 cells
Type: cell-based
Details: potency data either taken from inactivated or resting state, read-out: Potency category (human NaV1.8 IC50)
Description: Electrophysiology: Voltage-Clamp Recordings
The following NaV1.8 recombinant cell line was used for recordings: HEK-NaV1.8 (NM 006514.1) with in (NM 018400.3).
Sodium currents were measured using the patch clamp technique in the whole-cell configuration using the Qube384 (Sophion A/S, Copenhagen, Denmark) automated voltage clamp platform. “Multi hole” plates were used for the cell line expressing NaV1.8 while “single hole” plates were used for the recombinant cell lines expressing the other subtypes. Appropriate filters (for minimum seal resistance and minimum current size) and series resistance compensation (for high quality sodium channel recordings) were applied. Data was collected at ambient room temperature.
The recording extracellular solution contained (in mM): NaCl 145 mM, KCl 4 mM, CaCl2 2 mM, MgCl2 1 mM, HEPES 10 mM, Glucose 10 mM, pH 7.4 (NaOH). The intracellular recording solution contained (in mM): CsF 120 mM, CsCl 20 mM, NaCl 10 mM, EGTA 10 mM, HEPES 10 mM, pH 7.2 (CsOH). Currents were recorded at 25 kHz sampling frequency and filtered at 5 kHz. Series resistance compensation was applied at 65%.
Vehicle (VEH) is the control condition where cells are exposed to 0.3% DMSO without compound. All runs include VEH controls being exposed to the same voltage protocols to assess non-compound related phenomena such as run down and then used to isolate compound dependent effects on currents.
To check for state-dependence inhibition, the following voltage-sequence was applied every 20 seconds:
From a resting membrane potential of −120 mV, the first test pulse (P1; 20 ms to −10 mV) was applied to check for channels in the Resting State followed by a brief recovery (20 ms to −120 mV), then holding the membrane voltage to V112 (4 seconds at voltage to obtain half the channel at Rest and half Inactivated) with a subsequent second test pulse (P2; 20 ms to −10 mV) to check for channels in the Inactivated State, followed by another brief recovery (20 ms to −120 mV) and a final third test pulse (P3; 20 ms to −10 mV) to check for recovered channels.
To check for frequency-dependent inhibition, a 10 Hz protocol and a 20 Hz protocol were applied; namely,
From a resting membrane potential of −120 mV, 40-pulses (10 ms to −10 mV) was applied at 10 Hz (at 100 ms between pulses) and then at 20 Hz (at 50 ms between pulses).
Each parameter was recorded (P1, P2, P3, P40 from 10 Hz and P40 from 20 Hz) during a control period (lasting 5 minutes) when establishing the baseline and during compound period (lasting ˜12 minutes) when test compound (or vehicle) was applied. For each parameter, the value at the end of the compound period was normalized to the vehicle baseline; as follows
To adjust for any variance in the Na^+ current signal during the compound period (owing to cumulative inactivation independent of compound or shifts in biophysics over time), a dedicated segment of the recording wells in each 384 plate were dedicated to having only vehicle exposure. These vehicle-only recordings were used to correct for any apparent “run-up” or “run-down” in the experiment.
The adjusted inhibition was calculated as follows: […]
Percent inhibition was determined and IC50 values were calculated using a 4 parameter logistic model within XLFit Software (IDBS, Boston MA):
[formula] where A and B are the maximal and minimum inhibition respectively, C is the IC50 concentration and D is the (Hill) slope.
The potency data was either taken from inactivated or resting state.

T1 sequence (Q9Y5Y9 whole entry): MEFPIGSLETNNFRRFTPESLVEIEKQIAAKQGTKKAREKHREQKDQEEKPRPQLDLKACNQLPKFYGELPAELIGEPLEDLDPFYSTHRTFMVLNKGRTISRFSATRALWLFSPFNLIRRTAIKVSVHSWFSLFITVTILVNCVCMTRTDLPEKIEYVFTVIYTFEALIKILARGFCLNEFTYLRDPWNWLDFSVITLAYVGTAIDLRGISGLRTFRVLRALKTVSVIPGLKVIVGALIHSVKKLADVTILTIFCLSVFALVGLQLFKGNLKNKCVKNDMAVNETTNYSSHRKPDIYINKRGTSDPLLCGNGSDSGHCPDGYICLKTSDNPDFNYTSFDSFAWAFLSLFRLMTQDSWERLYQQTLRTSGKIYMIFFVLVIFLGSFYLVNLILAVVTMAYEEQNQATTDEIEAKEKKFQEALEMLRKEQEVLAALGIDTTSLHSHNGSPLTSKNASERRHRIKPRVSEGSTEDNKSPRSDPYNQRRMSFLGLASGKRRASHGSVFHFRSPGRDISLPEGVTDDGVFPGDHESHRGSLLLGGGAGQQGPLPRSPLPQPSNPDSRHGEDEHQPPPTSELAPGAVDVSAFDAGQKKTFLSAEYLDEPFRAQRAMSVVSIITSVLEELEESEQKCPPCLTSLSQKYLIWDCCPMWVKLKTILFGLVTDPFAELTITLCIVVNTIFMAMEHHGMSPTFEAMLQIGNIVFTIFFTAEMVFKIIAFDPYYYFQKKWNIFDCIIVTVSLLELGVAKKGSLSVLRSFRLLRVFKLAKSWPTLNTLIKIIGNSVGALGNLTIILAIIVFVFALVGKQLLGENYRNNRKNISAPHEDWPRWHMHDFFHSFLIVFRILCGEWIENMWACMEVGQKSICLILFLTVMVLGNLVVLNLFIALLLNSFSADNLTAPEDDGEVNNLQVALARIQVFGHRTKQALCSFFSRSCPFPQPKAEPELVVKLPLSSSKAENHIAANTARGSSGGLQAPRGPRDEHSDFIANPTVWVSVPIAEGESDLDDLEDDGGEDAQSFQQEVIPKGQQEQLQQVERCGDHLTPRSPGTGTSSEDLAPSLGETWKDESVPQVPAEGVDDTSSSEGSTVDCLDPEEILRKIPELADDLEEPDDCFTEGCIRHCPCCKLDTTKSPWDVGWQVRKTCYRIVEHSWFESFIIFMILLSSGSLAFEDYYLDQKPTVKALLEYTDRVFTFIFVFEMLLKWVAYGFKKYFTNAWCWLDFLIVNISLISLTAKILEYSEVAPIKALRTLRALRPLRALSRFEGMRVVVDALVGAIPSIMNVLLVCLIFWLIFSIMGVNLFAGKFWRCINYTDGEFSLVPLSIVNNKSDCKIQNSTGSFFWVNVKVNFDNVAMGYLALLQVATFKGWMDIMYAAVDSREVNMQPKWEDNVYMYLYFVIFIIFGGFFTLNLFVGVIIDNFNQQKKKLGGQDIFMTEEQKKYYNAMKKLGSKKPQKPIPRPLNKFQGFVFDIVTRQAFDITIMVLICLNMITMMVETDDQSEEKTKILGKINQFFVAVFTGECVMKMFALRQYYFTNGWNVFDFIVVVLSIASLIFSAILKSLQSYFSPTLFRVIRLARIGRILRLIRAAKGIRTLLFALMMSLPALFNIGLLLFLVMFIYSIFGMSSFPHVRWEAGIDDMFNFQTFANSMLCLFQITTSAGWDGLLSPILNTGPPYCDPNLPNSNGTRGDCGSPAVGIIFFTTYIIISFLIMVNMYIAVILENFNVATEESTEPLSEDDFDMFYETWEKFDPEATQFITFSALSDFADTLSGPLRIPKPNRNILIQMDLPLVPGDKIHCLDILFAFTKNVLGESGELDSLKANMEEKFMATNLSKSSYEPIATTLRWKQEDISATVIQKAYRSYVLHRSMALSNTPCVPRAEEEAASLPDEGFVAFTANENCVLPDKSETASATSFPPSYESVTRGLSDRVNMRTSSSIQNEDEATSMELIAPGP
T1 sequence (Q9NY72 23-215 partner): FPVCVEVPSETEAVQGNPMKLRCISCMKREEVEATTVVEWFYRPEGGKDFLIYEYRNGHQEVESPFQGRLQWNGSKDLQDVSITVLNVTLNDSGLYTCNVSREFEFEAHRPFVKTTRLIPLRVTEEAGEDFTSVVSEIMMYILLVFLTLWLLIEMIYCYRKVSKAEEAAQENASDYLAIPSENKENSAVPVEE

Row | SMILES | IC50 [nM]
1 | NC(=O)c1cc(NC(=O)c2c(C(F)(F)F)c(C3CC3)nn2CC2CC(F)(F)C2)ccc1F [SC-274, N-(3-carbamoyl-4-fluorophenyl)-3-cyclopropyl-1-((3,3-difluorocyclobutyl)methyl)-4-(trifluoromethyl)-1H-pyrazole-5-carboxamide] | ≤ 100
2 | Cc1c(C(C)(F)F)nn(C[C@H]2C[C@@H]2C(F)(F)F)c1C(=O)Nc1ccnc(C(N)=O)c1 (single isomer, unassigned) [SC-204b] | ≤ 100
3 | Cc1c(C(C)(F)F)nn(C[C@@H]2C[C@@H]2C(F)F)c1C(=O)Nc1ccnc(C(N)=O)c1 (relative stereo) [SC-206, 4-(3-(1,1-difluoroethyl)-1-((2-(difluoromethyl)cyclopropyl)methyl)-4-methyl-lH-pyrazole-5-carboxamido)picolinamide] | 100 to 1000
4 | CS(=O)(=O)c1cccc(NC(=O)c2c(C(F)(F)F)cnn2CC2CCCC(F)(F)C2)c1 (stereo not shown) [SC-23, 2-[(3,3-difluorocyclohexyl)methyl]-N-(3-methylsulfonylphenyl)-4-(trifluoromethyl)pyrazole-3-carboxamide] | 100 to 1000
5 | Cc1nn(CC2CCC(F)(F)CC2)c(C(=O)Nc2ccc(C(N)=O)nc2)c1C(F)(F)F [SC-257, 5-(1-((4,4-difluorocyclohexyl)methyl)-3-methyl-4-(trifluoromethyl)-1H-pyrazole-5-carboxamido)picolinamide] | 100 to 1000
6 | COc1c(C(F)(F)F)nn(CC2CCC(F)(F)C2)c1C(=O)Nc1ccnc(C(N)=O)c1 (stereo not shown) [SC-269, 4-(1-((3,3-difluorocyclopentyl)methyl)-4-methoxy-3-(trifluoromethyl)-lH-pyrazole-5-carboxamido)picolinamide] | 100 to 1000
7 | CCc1nn(CC2CC(F)(F)C2)c(C(=O)Nc2ccnc(S(C)(=O)=O)c2)c1C [SC-302, 1-((3,3-difluorocyclobutyl)methyl)-3-ethyl-4-methyl-N-(2-(methylsulfonyl)pyridin-4-yl)-1H-pyrazole-5-carboxamide] | 100 to 1000
8 | NC(=O)c1cc(NC(=O)c2c(C(F)(F)F)cnn2CC2CCCCC2)ccc1F [SC-35, N-(3-carbamoyl-4-fluorophenyl)-1-(cyclohexylmethyl)-4-(trifluoromethyl)-1H-pyrazole-5-carboxamide] | ≤ 100
9 | NS(=O)(=O)c1cccc(NC(=O)c2c(C(F)(F)F)cnn2CC2CCCCC2)c1 [SC-33, 2-(cyclohexylmethyl)-N-(3-sulfamoylphenyl)-4-(trifluoromethyl)pyrazole-3-carboxamide] | ≤ 100
10 | CS(=O)(=O)c1cccc(NC(=O)c2c(C(F)F)cnn2CC2CCCCC2)c1 [SC-229, 1-(cyclohexylmethyl)-4-(difluoromethyl)-N-(3-(methylsulfonyl)phenyl)-1H-pyrazole-5-carboxamide] | ≤ 100
11 | CS(=O)(=O)c1cccc(NC(=O)c2c(C#N)cnn2CC2CCCCC2)c1 [SC-10, 4-cyano-1-(cyclohexylmethyl)-N-(3-(methylsulfonyl)phenyl)-1H-pyrazole-5-carboxamide] | 100 to 1000
12 | Cc1c(C(C)(F)F)nn(CC2(C)CCC(F)(F)C2)c1C(=O)Nc1ccnc(S(N)(=O)=O)c1 (single isomer, unassigned) [SC-212a] | ≤ 100
13 | NC(=O)c1cc(NC(=O)c2c(C(F)(F)F)c(C3CC3)nn2C[C@@H]2CCO[C@H]2C(F)(F)F)ccn1 (racemic) [SC-147c] | ≤ 100
14 | Cc1nn(C[C@H]2CCC(F)(F)C2)c(C(=O)Nc2ccnc(C(N)=O)n2)c1C(F)(F)F [SC-248S] | 1000 to 10000
15 | Cc1nn(CC2CCC(F)(F)CC2)c(C(=O)Nc2ccnc(C#N)c2)c1C [SC-231, N-(2-cyanopyridin-4-yl)-1-((4,4-difluorocyclohexyl)methyl)-3,4-dimethyl-1H-pyrazole-5-carboxamide] | 1000 to 10000
16 | CC(C)c1nn(CC2CC(F)(F)C2)c(C(=O)Nc2ccnc(C(N)=O)c2)c1C(F)(F)F [SC-170, 4-(1-((3,3-difluorocyclobutyl)methyl)-3-isopropyl-4-(trifluoromethyl)-1H-pyrazole-5-carboxamido)picolinamide] | ≤ 100
17 | CS(=O)(=O)c1cccc(NC(=O)c2cc(C3CC3)nn2CC2CCCCC2)c1 [SC-12, 2-(cyclohexylmethyl)-5-cyclopropyl-N-(3-methylsulfonylphenyl)pyrazole-3-carboxamide] | 100 to 1000

Now from value to compound:

Row | IC50 [nM] | SMILES
18 | 100 to 1000 | Cc1nn(CC2CCC(F)(F)CC2)c(C(=O)Nc2cnnc(C(N)=O)c2)c1C(F)(F)F [SC-321, 5-(1-((4,4-difluorocyclohexyl)methyl)-3-methyl-4-(trifluoromethyl)-1H-pyrazole-5-carboxamido)pyridazine-3-carboxamide]
19 | 100 to 1000 | Cc1nn(CC2CCC(F)(F)CC2)c(C(=O)Nc2cncc(S(C)(=O)=O)c2)c1C(F)(F)F [SC-241, 1-((4,4-difluorocyclohexyl)methyl)-3-methyl-N-(5-(methyisulfonyl)pyridin-3-yl)-4-(trifluoromethyl)-1H-pyrazole-5-carboxamide]
20 | ≤ 100 | CC(F)(F)c1nn(CC2CCC(F)(F)C2)c(C(=O)Nc2ccnc(C(N)=O)c2)c1Cl (single isomer, unassigned) [SC-149a]
21 | ≤ 100 | NC(=O)c1cc(NC(=O)c2c(C(F)(F)F)c(C3CC3)nn2CC2CCC2)ccn1 [SC-159, 4-(1-(cyclobutylmethyl)-3-cyclopropyl-4-(trifluoromethyl)-1H-pyrazole-5-carboxamido)picolinamide]
22 | ≤ 100 | NC(=O)c1cc(NC(=O)c2c(C(F)(F)F)c(C3CC3)nn2CC2CC(OC(F)(F)F)C2)ccn1 (single isomer, unassigned) [SC-219b]
23 | ≤ 100 | NC(=O)c1cc(NC(=O)c2c(C(F)(F)F)c(C3CC3)nn2C[C@@H]2CCO[C@@H]2C(F)(F)F)ccn1 (single isomer, unassigned) [SC-147a]
24 | 1000 to 10000 | Cc1nn(CC2CCC(F)(F)CC2)c(C(=O)Nc2cc(C(N)=O)c(F)cn2)c1C(F)(F)F [SC-268, 2-(1-((4,4-difluorocyclohexyl)methyl)-3-methyl-4-(trifluoromethyl)-1H-pyrazole-5-carboxamido)-5-fluoroisonicotinamide]
25 | ≤ 100 | Cc1c(C(F)(F)C(F)(F)F)nn(CC2CCC2(F)F)c1C(=O)Nc1ccnc(C(N)=O)c1 (single isomer, unassigned) [SC-278a]
26 | 100 to 1000 | CS(=O)(=O)c1cccc(NC(=O)c2cc(C(F)(F)F)nn2CC2CCC(F)(F)CC2)c1 [SC-02, 2-[(4,4-difluorocyclohexyl)methyl]-N-(3-methylsulfonylphenyl)-5-(trifluoromethyl)pyrazole-3-carboxamide]
27 | ≤ 100 | NC(=O)c1cc(NC(=O)c2c(Cl)c(C(F)(F)F)nn2CC2CCC(F)(F)C2)ccn1 (single isomer, unassigned) [SC-160b]
28 | 100 to 1000 | Cc1nn(CC2CCC(F)(F)CC2)c(C(=O)Nc2cnnc(S(C)(=O)=O)c2)c1C(F)(F)F [SC-280, 1-((4,4-difluorocyclohexyl)methyl)-3-methyl-N-(6-(methylsulfonyl)pyridazin-4-yl)-4-(trifluoromethyl)-1H-pyrazole-5-carboxamide]
29 | 100 to 1000 | C[C@@H]1CC[C@H](Cn2nc(C3CC3)c(C(F)(F)F)c2C(=O)Nc2ccnc(C(N)=O)c2)O1 (single isomer, unassigned) [SC-286a]
30 | 1000 to 10000 | CS(=O)(=O)c1cc(NC(=O)c2c(CC(F)(F)F)c(C3CC3)nn2CC2CCOCC2)ccn1 [SC-305, 3-cyclopropyl-N-(2-(methylsulfonyl)pyridin-4-yl)-1-((tetrahydro-2H-pyran-4-yl)methyl)-4-(2,2,2-trifluoroethyl)-1H-pyrazole-5-carboxamide]
31 | ≤ 100 | NC(=O)c1cc(NC(=O)c2c(C(F)(F)F)c(OC(F)F)nn2C[C@H]2CCC(F)(F)C2)ccn1 [SC-158S]
